According to PMC5042873 (Journal of the American Chemical Society, 2016):

Columns and labels:
GLUT1 transporters = conditions: cited from earlier work
[1] = In vivo toxicity by body weight and general behavior; set-up: species or system Balb/c mice; conditions: 5 mg/kg, 4X in 8 days
[2] = tested on: GLUT1 expressing breast cancer (G1fpt); test: In vivo antitumor efficacy, GLUT1 expressing breast cancer syngeneic model; set-up: species or system Balb/c mice; conditions: 5 mg/kg i.v. bolus, four treatments once every other day, 30 days

| Compound | affinity for GLUT1 transporters relative to D-glucose (GLUT1 transporters) [fold] | body weight [1] | antitumor efficacy (tumor volume) [2] | tumors smaller compared to tumors in the PBS treated control group [2] [times] |
| --- | --- | --- | --- | --- |
| O=[N+]([O-])c1ccc(NCC2OC(O)C(O)C(O)[C@@H]2O)c2nonc12 (stereo partly shown) [6-NBDG] | 300 | – | – | – |
| O=C1[O][Pt]2([NH][C@@H]3CCCC[C@H]3[NH]2)[O]C1=O [oxaliplatin] | – | reduced after the second dose but recovered to normal values | no statistically significant difference compared to the Glc-Pt 2 treated group | 10 |
